Test results taken from publication PMC5394527 (Journal of Medicinal Chemistry, 2017).
Where two headings read alike, the source gives them in different places.

How the values were obtained:
[1] = tested on: SJSA-1 osteosarcoma tumor xenograft; details: for antitumor activity in SJSA-1 xenograft model: mice; for antitumor efficacy (regression): last line of Table 6, SJSA-1 xenograft model in mice; for weight loss of mice during the experiment: SJSA-1 xenograft experiment, 30 or 100 mg/kg daily for 14 days
[2] = tested on: p53 activation (MDM2, p53, p21, cleaved PARP, cleaved caspase-3) in SJSA-1 tumors; details: mice, single oral dose 100 mg/kg
SJSA-1 cancer cell line [3] = details: cited from earlier work
[4] = tested on: SJSA-1 osteosarcoma tumor xenograft; details: mice; cited from earlier work
MDM2 = MDM2 (Homo sapiens, UniProt Q00987)
SJSA-1 cancer cell line [5] = test: cells; details: Homo sapiens, SJSA-1, read-out: SJSA-1 IC50, cell growth inhibition
[6] = cited from earlier work
[7] = tested on: RS4;11 acute lymphoblastic leukemia xenograft; details: for antitumor activity in RS4;11 xenograft model: mice
[8] = oral gavage 100 mg/kg daily for 14 days
[9] = oral 30 mg/kg daily for 14 days

Sequence of MDM2 (Q00987 whole entry): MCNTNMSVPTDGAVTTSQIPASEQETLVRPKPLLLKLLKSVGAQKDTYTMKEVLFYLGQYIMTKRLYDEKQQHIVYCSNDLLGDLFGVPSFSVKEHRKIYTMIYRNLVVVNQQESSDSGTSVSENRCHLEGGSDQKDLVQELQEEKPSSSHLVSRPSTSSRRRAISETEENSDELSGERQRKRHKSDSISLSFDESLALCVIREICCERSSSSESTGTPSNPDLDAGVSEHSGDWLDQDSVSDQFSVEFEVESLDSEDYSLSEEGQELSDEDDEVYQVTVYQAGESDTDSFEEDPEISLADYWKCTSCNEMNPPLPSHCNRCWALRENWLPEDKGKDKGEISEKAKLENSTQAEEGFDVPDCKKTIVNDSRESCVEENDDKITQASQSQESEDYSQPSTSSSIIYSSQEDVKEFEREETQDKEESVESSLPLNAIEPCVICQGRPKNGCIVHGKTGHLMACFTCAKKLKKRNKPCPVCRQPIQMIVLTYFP

With `CC(C)(C)C[C@@H]1N[C@@H](C(=O)N[C@H]2CC[C@H](O)CC2)[C@H](c2cccc(Cl)c2F)[C@]12C(=O)Nc1cc(Cl)ccc12` [Compound 2, reference compound] the “antitumor activity in SJSA-1 xenograft model” value [1, 8] was “complete tumor regression”, the “apoptosis induction (cleavage of PARP and caspase-3) in SJSA-1 xenograft tumor tissue” value (“apoptosis induction” below) [2] was “induce strong apoptosis” and the “p53 activation (MDM2, p53, p21 levels) in SJSA-1 xenograft tumor tissue” value [2] was “robust activation of p53”. For the same molecule, the purity retained (in solutions after 7 days (slow isomerization)) was 93–96%.
In the case of `O=C(N[C@H]1CC[C@H](O)CC1)[C@@H]1NC2(CCCCC2)[C@@]2(C(=O)Nc3cc(Cl)ccc32)[C@H]1c1cccc(Cl)c1F` [Compound 6, (3′R,4′S,5′R)-6″-Chloro-4′-(3-chloro-2-fluorophenyl)-N-((1r,4R)-4-hydroxycyclohexyl)-2″-oxodispiro[cyclohexane-1,2′-pyrrolidine-3′,3″-indoline]-5′-carboxamide], the decomposition (after 2 days in cell culture media, UPLC) is given as < 1%, the IC50 (SJSA-1 cancer cell line [3]; read-out: SJSA-1 cell growth inhibition IC50) is given as 190 nM and the “antitumor activity in SJSA-1 xenograft model” value [4] is given as “strong tumor growth inhibition but not complete tumor regression”.
With `CNC(=O)[C@@H]1NC2(CCNCC2)[C@@]2(C(=O)Nc3cc(Cl)ccc32)[C@H]1c1cccc(Cl)c1F` [Compound 8, (3R,4′S,5′R)-6-Chloro-4′-(3-chloro-2-fluorophenyl)-N-methyl-2-oxodispiro[indoline-3,3′-pyrrolidine-2′,4″-piperidine]-5′-carboxamide] the “no appreciable binding to MDM2 up to” value (MDM2) was > 2 µM.
In the case of `CN1[C@@H](c2nc(CC(=O)O)cs2)[C@H](c2cccc(Cl)c2F)[C@]2(C(=O)Nc3cc(Cl)ccc32)C12CCCCC2` [Compound 27, 2-(2-((3′R,4′S,5′R)-6″-Chloro-4′-(3-chloro-2-fluorophenyl)-1′-methyl-2″-oxodispiro[cyclohexane-1,2′-pyrrolidine-3′,3″-indolin]-5′-yl)thiazol-4-yl)acetic Acid], the IC50 (SJSA-1 cancer cell line [5]) is reported as > 2000 nM.
For `O=C(O)[C@@H]1NC2(CCCCC2)[C@@]2(C(=O)Nc3cc(Cl)ccc32)[C@H]1c1cccc(Cl)c1F` [Compound 29], the IC50 (SJSA-1 cancer cell line [3]; read-out: SJSA-1 IC50, cell growth inhibition) is given as > 10000 nM.
For `O=C(N[C@H]1CC[C@H](C(=O)O)CC1)[C@@H]1NC2(CCCCC2)[C@@]2(C(=O)Nc3cc(Cl)ccc32)[C@H]1c1cccc(Cl)c1F` [Compound 33, (1R,4r)-4-((3′R,4′S,5′R)-6″-Chloro-4′-(3-chloro-2-fluorophenyl)-2″-oxodispiro[cyclohexane-1,2′-pyrrolidine-3′,3″-indoline]-5′-carboxamido)cyclohexane-1-carboxylic Acid], the “antitumor activity in SJSA-1 xenograft model” value [1, 8] was “effectively retard tumor growth, it failed to achieve tumor regression” and the stability in solution (CH3CN/H2O, MeOH/H2O or cell culture media, 2 days) was “can decompose in solution”.
In the case of `O=C(O)c1ccc(NC(=O)[C@@H]2NC3(CCCCC3)[C@@]3(C(=O)Nc4cc(Cl)ccc43)[C@H]2c2cccc(Cl)c2F)cc1` [Compound 39], the “antitumor activity in SJSA-1 xenograft model” value [4] is listed as “partial tumor regression” and the stability in solution [6] is listed as “very stable in solution”.
For `CC1(C)CCC2(CC1)N[C@@H](C(=O)Nc1ccc(C(=O)O)cc1)[C@H](c1cccc(Cl)c1F)[C@]21C(=O)Nc2cc(Cl)ccc21` [Compound 54, 4-((3′R,4′S,5′R)-6″-Chloro-4′-(3-chloro-2-fluorophenyl)-4,4-dimethyl-2″-oxodispiro[cyclo-hexane-1,2'-pyrrolidine-3′,3″-indoline]-5'-carboxamido)benzoic Acid], the “antitumor efficacy (regression)” value [1] was 87% regression and the “antitumor activity in SJSA-1 xenograft model” value ([1]; oral gavage 50 mg/kg daily for 14 days) was “effectively retards tumor growth”.
For `O=C(NC12CCC(C(=O)O)(CC1)CC2)[C@@H]1NC2(CCCCC2)[C@@]2(C(=O)Nc3cc(Cl)ccc32)[C@H]1c1cccc(Cl)c1F` [Compound 56, 4-((3′R,4′S,5′R)-6″-Chloro-4′-(3-chloro-2-fluorophenyl)-2″-oxodispiro[cyclohexane-1,2′-pyrrolidine-3′,3″-indoline]-5′-carboxamido)bicyclo[2.2.2]octane-1-carboxylic Acid], the “weight loss of mice during the experiment” value (“weight loss” below) [1] was “no or minimal weight loss”, the “antitumor efficacy (regression)” value [1] was “no regression” and the “apoptosis induction” value [2] was “no cleavage of PARP and caspase-3”.
For `O=C(NC12CCC(C(=O)O)(CC1)CC2)[C@@H]1NC2(CCC(F)(F)CC2)[C@@]2(C(=O)Nc3cc(Cl)ccc32)[C@H]1c1cccc(Cl)c1F` [Compound 57, 4-((3′R,4′S,5′R)-6″-Chloro-4′-(3-chloro-2-fluorophenyl)-4,4-difluoro-2″-oxodispiro[cyclohexane-1,2′-pyrrolidine-3′,3″-indoline]-5′-carboxamido)bicyclo[2.2.2]octane-1-carboxylic Acid], the “apoptosis induction” value [2] was “modest effect on activation of p53 and induction of cleavage of PARP and caspase-3”.
With `CS(=O)(=O)NC(=O)C12CCC(NC(=O)[C@@H]3NC4(CCCCC4)[C@@]4(C(=O)Nc5cc(Cl)ccc54)[C@H]3c3cccc(Cl)c3F)(CC1)CC2` [Compound 58, (3′R,4′S,5′R)-6″-Chloro-4′-(3-chloro-2-fluorophenyl)-N-(4-((methylsulfonyl)carbamoyl)-bicyclo[2.2.2]octan-1-yl)-2″-oxodispiro[cyclohexane-1,2′-pyrrolidine-3′,3″-indoline]-5′-carboxamide] the “apoptosis induction” value [2] was “modest effect on activation of p53 and induction of cleavage of PARP and caspase-3”.
In the case of `CN1[C@@H](C(=O)NC23CCC(C(=O)O)(CC2)CC3)[C@H](c2cccc(Cl)c2F)[C@]2(C(=O)Nc3cc(Cl)ccc32)C12CCCCC2` [Compound 59, 4-((3′R,4′S,5′R)-6″-Chloro-4′-(3-chloro-2-fluorophenyl)-1′-methyl-2″-oxodispiro[cyclohexane-1,2′-pyrrolidine-3′,3″-indoline]-5′-carboxamido)bicyclo[2.2.2]octane-1-carboxylic Acid], the “weight loss” value [1] is reported as “no or minimal weight loss”, the “antitumor activity in SJSA-1 xenograft model” value [1, 9] is reported as “effectively inhibits tumor growth” and the “antitumor activity in SJSA-1 xenograft model” value [1, 8] is reported as “complete and long-lasting tumor regression”. For the same molecule, the “persistence of p53 activation in SJSA-1 xenograft tumor tissue” value [2] was 24 h.
With `CCN1[C@@H](C(=O)NC23CCC(C(=O)O)(CC2)CC3)[C@H](c2cccc(Cl)c2F)[C@]2(C(=O)Nc3cc(Cl)ccc32)C12CCCCC2` [Compound 60, 4-((3′R,4′S,5′R)-6″-Chloro-4′-(3-chloro-2-fluorophenyl)-1′-ethyl-2″-oxodispiro[cyclohexane-1,2′-pyrrolidine-3′,3″-indoline]-5′-carboxamido)bicyclo[2.2.2]octane-1-carboxylic Acid] the “weight loss” value [1] was “no or minimal weight loss”, the “antitumor activity in SJSA-1 xenograft model” value [1, 9] was “effectively inhibits tumor growth” and the “antitumor activity in SJSA-1 xenograft model” value [1, 8] was “complete and long-lasting tumor regression”. The “persistence of p53 activation in SJSA-1 xenograft tumor tissue” value [2] was 24 h, the “antitumor activity in RS4;11 xenograft model” value ([7]; 200 mg/kg weekly dosing for 3 weeks) was “partial tumor regression” and the “tolerability in RS4;11 xenograft experiment” value ([7]; mice, 50, 75, 100 mg/kg daily or 200 mg/kg weekly) was “well tolerated at all doses and schedules”. For the same molecule, the “antitumor activity in RS4;11 xenograft model” value ([7]; oral 100 mg/kg daily for 14 days) was “partial tumor regression” and the “chemical stability in solutions” value (1:1 CH3CN/H2O, 1:1 MeOH/H2O, cell culture media, 7 days) was “very stable in solutions for a period of 7 days”.
